Reference: PubChem BioAssay (NCI)
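Growth conditions: 96-well plates. Treatment: test compound, 48 hours, 5 concentrations. Analysis: linear interpolation between bracketing concentrations; unreached endpoints set to highest concentration. TGI denotes the concentration required for complete inhibition of growth.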

Legend:
Test in all cases: NCI-60 cell line screen, 48 h
MALME-3M melanoma = test system: MALME-3M melanoma
NCI-H23 lung = test system: NCI-H23 lung
OVCAR-8 ovarian = test system: OVCAR-8 ovarian
IGROV1 ovarian = test system: IGROV1 ovarian
HCC-2998 colon = test system: HCC-2998 colon
A498 renal = test system: A498 renal
HOP-92 NSCLC = test system: HOP-92 NSCLC
KM12 colon = test system: KM12 colon
HT29 colon = test system: HT29 colon
HCT-116 colon = test system: HCT-116 colon
SNB-19 CNS = test system: SNB-19 CNS
SNB-78 CNS = test system: SNB-78 CNS
UO-31 renal = test system: UO-31 renal
XF 498 CNS = test system: XF 498 CNS
HL-60(TB) leukemia = test system: HL-60(TB) leukemia
CCRF-CEM leukemia = test system: CCRF-CEM leukemia
M14 melanoma = test system: M14 melanoma
SK-OV-3 ovarian = test system: SK-OV-3 ovarian
SK-MEL-2 melanoma = test system: SK-MEL-2 melanoma
SR leukemia = test system: SR leukemia
NCI-H226 lung = test system: NCI-H226 lung
NCI-H522 lung = test system: NCI-H522 lung
SN12C renal = test system: SN12C renal
OVCAR-5 ovarian = test system: OVCAR-5 ovarian
UACC-62 melanoma = test system: UACC-62 melanoma
UACC-257 melanoma = test system: UACC-257 melanoma
KM20L2 colon = test system: KM20L2 colon
K-562 leukemia = test system: K-562 leukemia
M19-MEL melanoma = test system: M19-MEL melanoma
U251 CNS = test system: U251 CNS
SF-539 CNS = test system: SF-539 CNS
DLD-1 colon = test system: DLD-1 colon
LOX IMVI melanoma = test system: LOX IMVI melanoma
RXF 393 renal = test system: RXF 393 renal
COLO 205 colon = test system: COLO 205 colon
DMS 114 small cell lung = test system: DMS 114 small cell lung
SF-295 CNS = test system: SF-295 CNS
RPMI-8226 leukemia = test system: RPMI-8226 leukemia
OVCAR-3 ovarian = test system: OVCAR-3 ovarian
SK-MEL-28 melanoma = test system: SK-MEL-28 melanoma
HOP-62 NSCLC = test system: HOP-62 NSCLC
A549 NSCLC = test system: A549 NSCLC
TK-10 renal = test system: TK-10 renal
HOP-18 NSCLC = test system: HOP-18 NSCLC
786-0 renal = test system: 786-0 renal
SNB-75 CNS = test system: SNB-75 CNS
MOLT-4 leukemia = test system: MOLT-4 leukemia
SF-268 CNS = test system: SF-268 CNS
EKVX NSCLC = test system: EKVX NSCLC
ACHN renal = test system: ACHN renal
LXFL 529 NSCLC = test system: LXFL 529 NSCLC
SW-620 colon = test system: SW-620 colon
NCI-H460 lung = test system: NCI-H460 lung
SK-MEL-5 melanoma = test system: SK-MEL-5 melanoma
HCT-15 colon = test system: HCT-15 colon
DMS 273 small cell lung = test system: DMS 273 small cell lung
OVCAR-4 ovarian = test system: OVCAR-4 ovarian
CAKI-1 renal = test system: CAKI-1 renal

## COc1ccc(/C(C#N)=C(/N)SCc2ccccc2Cl)cc1
MALME-3M melanoma
  TGI: 44.7 µM
NCI-H23 lung
  TGI: 34.2 µM
OVCAR-8 ovarian
  TGI: > 10 µM
IGROV1 ovarian
  TGI: > 100 µM
HCC-2998 colon
  TGI: 31.7 µM
A498 renal
  TGI: 42.3 µM
HOP-92 NSCLC
  TGI: 34.5 µM
KM12 colon
  TGI: > 10 µM
HT29 colon
  TGI: 33.3 µM
HCT-116 colon
  TGI: 32.8 µM
SNB-19 CNS
  TGI: > 10 µM
SNB-78 CNS
  TGI: 64.2 µM
UO-31 renal
  TGI: > 10 µM
XF 498 CNS
  TGI: 30.3 µM
HL-60(TB) leukemia
  TGI: 63.4 µM
CCRF-CEM leukemia
  TGI: > 100 µM
M14 melanoma
  TGI: 27.8 µM
SK-OV-3 ovarian
  TGI: 86.9 µM
SK-MEL-2 melanoma
  TGI: 32.6 µM
SR leukemia
  TGI: > 100 µM
NCI-H226 lung
  TGI: 33.3 µM
NCI-H522 lung
  TGI: 27.4 µM
SN12C renal
  TGI: 91.3 µM
OVCAR-5 ovarian
  TGI: 32.9 µM
UACC-62 melanoma
  TGI: 25.4 µM
UACC-257 melanoma
  TGI: 33.7 µM
KM20L2 colon
  TGI: 34.3 µM
K-562 leukemia
  TGI: 49.5 µM
M19-MEL melanoma
  TGI: 40.6 µM
U251 CNS
  TGI: 32.6 µM
SF-539 CNS
  TGI: 32.5 µM
DLD-1 colon
  TGI: 32.7 µM
LOX IMVI melanoma
  TGI: 29 µM
RXF 393 renal
  TGI: 30.9 µM
COLO 205 colon
  TGI: 41.6 µM
DMS 114 small cell lung
  TGI: 37.1 µM
SF-295 CNS
  TGI: 31.5 µM
RPMI-8226 leukemia
  TGI: > 100 µM
OVCAR-3 ovarian
  TGI: 24.3 µM
SK-MEL-28 melanoma
  TGI: 35.8 µM
HOP-62 NSCLC
  TGI: 34.1 µM
A549 NSCLC
  TGI: > 100 µM
TK-10 renal
  TGI: 94.7 µM
HOP-18 NSCLC
  TGI: 38.2 µM
786-0 renal
  TGI: 32.7 µM
SNB-75 CNS
  TGI: 63.6 µM
MOLT-4 leukemia
  TGI: 85.2 µM
SF-268 CNS
  TGI: 33.2 µM
EKVX NSCLC
  TGI: 48.2 µM
ACHN renal
  TGI: > 10 µM
LXFL 529 NSCLC
  TGI: 31.2 µM
SW-620 colon
  TGI: 29.7 µM

## CCOC(=O)C1Oc2ccc([N+](=O)[O-])cc2C1(C)O (stereo unspecified)
MALME-3M melanoma
  TGI: > 100 µM
NCI-H23 lung
  TGI: > 100 µM
OVCAR-8 ovarian
  TGI: > 100 µM
IGROV1 ovarian
  TGI: > 100 µM
HCC-2998 colon
  TGI: > 100 µM
A498 renal
  TGI: > 100 µM
HOP-92 NSCLC
  TGI: > 100 µM
KM12 colon
  TGI: > 100 µM
HT29 colon
  TGI: > 100 µM
SNB-19 CNS
  TGI: > 100 µM
NCI-H460 lung
  TGI: > 100 µM
SK-MEL-5 melanoma
  TGI: > 100 µM
SNB-78 CNS
  TGI: > 100 µM
UO-31 renal
  TGI: > 100 µM
XF 498 CNS
  TGI: > 100 µM
HL-60(TB) leukemia
  TGI: > 100 µM
CCRF-CEM leukemia
  TGI: > 100 µM
M14 melanoma
  TGI: > 100 µM
SK-OV-3 ovarian
  TGI: > 100 µM
SK-MEL-2 melanoma
  TGI: > 100 µM
SR leukemia
  TGI: > 100 µM
NCI-H226 lung
  TGI: > 100 µM
NCI-H522 lung
  TGI: > 100 µM
SN12C renal
  TGI: > 100 µM
OVCAR-5 ovarian
  TGI: > 100 µM
UACC-62 melanoma
  TGI: > 100 µM
HCT-15 colon
  TGI: > 100 µM
UACC-257 melanoma
  TGI: > 100 µM
K-562 leukemia
  TGI: > 100 µM
M19-MEL melanoma
  TGI: > 100 µM
U251 CNS
  TGI: > 100 µM
SF-539 CNS
  TGI: > 100 µM
DMS 273 small cell lung
  TGI: > 100 µM
DLD-1 colon
  TGI: > 100 µM
LOX IMVI melanoma
  TGI: > 100 µM
RXF 393 renal
  TGI: > 100 µM
COLO 205 colon
  TGI: > 100 µM
DMS 114 small cell lung
  TGI: > 100 µM
SF-295 CNS
  TGI: > 100 µM
RPMI-8226 leukemia
  TGI: > 100 µM
OVCAR-3 ovarian
  TGI: > 100 µM
SK-MEL-28 melanoma
  TGI: > 100 µM
HOP-62 NSCLC
  TGI: > 100 µM
OVCAR-4 ovarian
  TGI: > 100 µM
A549 NSCLC
  TGI: > 100 µM
TK-10 renal
  TGI: > 100 µM
786-0 renal
  TGI: > 100 µM
SNB-75 CNS
  TGI: > 100 µM
MOLT-4 leukemia
  TGI: > 100 µM
SF-268 CNS
  TGI: > 100 µM
EKVX NSCLC
  TGI: > 100 µM
ACHN renal
  TGI: > 100 µM
LXFL 529 NSCLC
  TGI: > 100 µM
SW-620 colon
  TGI: > 100 µM

## COC(=O)C1C(/C=C/c2ccoc2)ON2CCC[C@@H]12 (stereo partly specified)
MALME-3M melanoma
  TGI: > 100 µM
NCI-H23 lung
  TGI: > 100 µM
OVCAR-8 ovarian
  TGI: > 100 µM
HCC-2998 colon
  TGI: > 100 µM
HOP-92 NSCLC
  TGI: > 100 µM
KM12 colon
  TGI: > 100 µM
HT29 colon
  TGI: > 100 µM
SNB-19 CNS
  TGI: > 100 µM
NCI-H460 lung
  TGI: > 100 µM
SNB-78 CNS
  TGI: > 100 µM
UO-31 renal
  TGI: > 100 µM
HL-60(TB) leukemia
  TGI: > 100 µM
M14 melanoma
  TGI: > 100 µM
SK-MEL-2 melanoma
  TGI: > 100 µM
SR leukemia
  TGI: > 100 µM
NCI-H226 lung
  TGI: > 100 µM
NCI-H522 lung
  TGI: > 100 µM
SN12C renal
  TGI: > 100 µM
OVCAR-5 ovarian
  TGI: > 100 µM
UACC-257 melanoma
  TGI: > 100 µM
KM20L2 colon
  TGI: > 100 µM
M19-MEL melanoma
  TGI: > 100 µM
U251 CNS
  TGI: > 100 µM
SF-539 CNS
  TGI: > 100 µM
DMS 273 small cell lung
  TGI: > 100 µM
DLD-1 colon
  TGI: > 100 µM
LOX IMVI melanoma
  TGI: > 100 µM
RXF 393 renal
  TGI: > 100 µM
COLO 205 colon
  TGI: > 100 µM
DMS 114 small cell lung
  TGI: > 100 µM
SF-295 CNS
  TGI: > 100 µM
OVCAR-3 ovarian
  TGI: > 100 µM
SK-MEL-28 melanoma
  TGI: > 100 µM
HOP-62 NSCLC
  TGI: > 100 µM
OVCAR-4 ovarian
  TGI: > 100 µM
A549 NSCLC
  TGI: > 100 µM
CAKI-1 renal
  TGI: > 100 µM
TK-10 renal
  TGI: > 100 µM
HOP-18 NSCLC
  TGI: 98 µM
786-0 renal
  TGI: > 100 µM
SNB-75 CNS
  TGI: > 100 µM
SF-268 CNS
  TGI: > 100 µM
EKVX NSCLC
  TGI: > 100 µM
ACHN renal
  TGI: > 100 µM
LXFL 529 NSCLC
  TGI: > 100 µM
SW-620 colon
  TGI: > 100 µM

## Cc1nc2nn(C)cc2c(=O)n1/N=C/c1ccccc1
MALME-3M melanoma
  TGI: > 100 µM
NCI-H23 lung
  TGI: > 100 µM
OVCAR-8 ovarian
  TGI: > 100 µM
IGROV1 ovarian
  TGI: > 100 µM
HCC-2998 colon
  TGI: > 100 µM
A498 renal
  TGI: > 100 µM
KM12 colon
  TGI: > 100 µM
HT29 colon
  TGI: > 100 µM
HCT-116 colon
  TGI: > 100 µM
SNB-19 CNS
  TGI: > 100 µM
NCI-H460 lung
  TGI: > 100 µM
SK-MEL-5 melanoma
  TGI: > 100 µM
SNB-78 CNS
  TGI: > 100 µM
UO-31 renal
  TGI: > 100 µM
XF 498 CNS
  TGI: > 100 µM
HL-60(TB) leukemia
  TGI: > 100 µM
CCRF-CEM leukemia
  TGI: > 100 µM
SK-OV-3 ovarian
  TGI: > 100 µM
SK-MEL-2 melanoma
  TGI: > 100 µM
SR leukemia
  TGI: > 100 µM
NCI-H226 lung
  TGI: > 100 µM
NCI-H522 lung
  TGI: > 100 µM
SN12C renal
  TGI: > 100 µM
OVCAR-5 ovarian
  TGI: > 100 µM
UACC-62 melanoma
  TGI: > 100 µM
HCT-15 colon
  TGI: > 100 µM
UACC-257 melanoma
  TGI: > 100 µM
KM20L2 colon
  TGI: > 100 µM
K-562 leukemia
  TGI: > 100 µM
M19-MEL melanoma
  TGI: > 100 µM
U251 CNS
  TGI: > 100 µM
SF-539 CNS
  TGI: > 100 µM
DMS 273 small cell lung
  TGI: > 100 µM
DLD-1 colon
  TGI: > 100 µM
LOX IMVI melanoma
  TGI: > 100 µM
RXF 393 renal
  TGI: > 100 µM
COLO 205 colon
  TGI: > 100 µM
DMS 114 small cell lung
  TGI: > 100 µM
SF-295 CNS
  TGI: > 100 µM
RPMI-8226 leukemia
  TGI: > 100 µM
OVCAR-3 ovarian
  TGI: > 100 µM
SK-MEL-28 melanoma
  TGI: > 100 µM
HOP-62 NSCLC
  TGI: > 100 µM
OVCAR-4 ovarian
  TGI: > 100 µM
A549 NSCLC
  TGI: > 100 µM
TK-10 renal
  TGI: > 100 µM
HOP-18 NSCLC
  TGI: > 100 µM
786-0 renal
  TGI: > 100 µM
SNB-75 CNS
  TGI: > 100 µM
MOLT-4 leukemia
  TGI: > 100 µM
SF-268 CNS
  TGI: > 100 µM
EKVX NSCLC
  TGI: > 100 µM
ACHN renal
  TGI: > 100 µM
SW-620 colon
  TGI: > 100 µM
